Earlier results as cited in US20140127295A1, “COMPOSITIONS, PROCESS OF PREPARATION OF SAID COMPOSITIONS AND METHOD OF TREATING INFLAMMATORY DISEASES” (priority 2011, published 2014).

Columns and labels:
[1] = in vivo
[2] = in mice

Compound	Tmax [1]	Cmax [1]	T½ [1]	maximum tolerated dose [2]
CCC(C)(C)C(=O)O[C@H]1C[C@@H](C)C=C2C=C[C@H](C)[C@H](CC[C@@H]3C[C@@H](O)CC(=O)O3)[C@H]21 [CW302, (1S,3R,7S,8S,8aR)-8-{2-[(4R)-4-hydroxy-6-oxooxan-2-yl]ethyl}-3,7-dimethyl-1,2,3,7,8,8a-hexahydronaphthalen-1-yl 2,2-dimethylbutanoate]	1.9 h			
CCCc1nn(C)c2c(=O)[nH]c(-c3cc(S(=O)(=O)N4CCN(C)CC4)ccc3OCC)nc12 [CW305, 5-[2-ethoxy-5-(4-methylpiperazine-1-sulfonyl)phenyl]-1-methyl-3-propyl-1H,4H,7H-pyrazolo[4,3-d]pyrimidin-7-one]	1 h	440 ng/mL	4 to 5 h	8.5 mg/kg
